This assay relates to MDA-MB-231 cells. Briefly: cells. It counts as cell-based. The note with it: Homo sapiens, MDA-MB-231, 48 h. How it is done: Here, 250 μl of MDA-MB-231 cells in culture medium at cell density of 5.2×10^3 cells/ml was seeded onto the gels (0.2, 0.5, 1.0, 2.5 and 4.0 kPa). The culture medium was changed every 3 days. […] Then, the cells were washed with PBS and the fluorescence intensity was measured using the AlamarBlue cell viability assay as described above. Cell viability in the presence of anti-cancer drugs was normalized to the untreated control groups (0 μM).

Like-named read-outs stand apart in the source and are kept apart here.

Turning to `COc1cccc2c1C(=O)c1c(O)c3c(c(O)c1C2=O)C[C@@](O)(C(=O)CO)C[C@@H]3O[C@H]1C[C@H](N)[C@H](O)[C@H](C)O1` [doxorubicin], the viability (in general, the share of living cells, or the viability signal relative to a control) at 100 µM by setting is: (read-out: cell viability, 100 μM doxorubicin, 48 hours, 0.2 and 0.5 kPa gels) around 80%; (read-out: cell viability, 100 μM doxorubicin, 48 hours, HA-Tyr gels 2.5 and 4.0 kPa) around 20%; (read-out: cell viability, 100 μM doxorubicin, 48 hours, cell culture plate) around 10%.

For the origin of these results see patent US20160145580A1, “METHOD OF CULTURING CANCER STEM CELLS” (AGENCY FOR SCIENCE, TECHNOLOGY AND RESEARCH, priority 2013, published 2016).
